Data published in patent US8548786B2, “Neuronal avalanche assay” (priority 2005, dated 2013).

Tests used:
[1] = test system: acute somatosensory cortex slices; assay: Neuronal avalanche induction in acute somatosensory cortex slices; format: cell-based, rat; conditions: 3 μM SKF38393 + 3 μM NMDA
[2] = test system: acute slices of rat medial prefrontal cortex (mPFC); assay: Neuronal avalanche (NAS) assay, microelectrode array LFP recording in acute mPFC slices;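 also: 60-electrode array recordings, low-pass filtered at 200 Hz and sampled at 1 kHz, nLFPs detected below −3 SD of electrode noise, avalanches as runs of active bins between silent bins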
Protocol: Continuous extracellular signals v(t) can be recorded between 0.1 Hz and 3000 Hz, low-pass filtered at 200 Hz (Butterfly-filter, Multichannel Systems), digitised at a rate of 1 kHz (Δt=1 ms) and stored. For each electrode k (k=[1, nelec], nelec=60), the electrode noise of v(t) can be estimated by calculating the mean and standard deviation (SD) of v(t) from the total duration of the recording, Ttot, which can range, for example, between 40-60 min. […] Negative LFP peaks (nLFPs) at electrode k can be detected by negative threshold crossing at −3 SD of electrode noise and can be characterized by the time and absolute amplitude of the negative LFP peak, A^k(ti), before v(t) returned to threshold. More precisely, at a given temporal resolution Δt, nLFPs at electrode k can be represented by a vector of length nmax, where nmax is an integer value for which Ttot=nmax·Δt. This vector can contain zeros, except for positions ti=i·Δt, iε[1, . . . , nmax,] with values A^k(ti) in μV.
A neuronal avalanche is a sequence of consecutive time bins of width Δt with at least one nLFP, which is preceded and terminated by at least one time bin with no activity (FIG. 3A). The absence of activity for a period of Δt thus indicates the end of an avalanche. If the decision of whether an avalanche has ended is made too early (Δt too short), avalanches will be terminated prematurely; if the Δt chosen is too long, avalanches will be falsely concatenated. If avalanches did simply propagate like a wave, an approximation for Δt (Δtavg) could be obtained by averaging the time between one nLFP at one electrode and the next nLFP at neighbouring electrodes only. Because nLFPs in avalanches occur in irregular patterns across electrodes on the array, a pair wise approximation can be used in order to assess the average time that is required for nLFPs to propagate between electrodes.
In order to calculate Δtavg, the distribution of time intervals T for successive nLFPs on the array can be obtained. Starting with the first nLFP, e.g. A^k(ti) on electrode k at time ti, the next occurrence of an nLFP on the array can be searched for, e.g. A^l(tj) on electrode l at time tj, and calculated the time interval Tm-Δt^k,l, where m=(tj−ti)/Δt. This process can be repeated for all occurrences of nLFPs on electrode k and for all electrodes. The resulting values can be combined into one density distribution P(TmΔt), which captures how often successive nLFPs occurred with a particular delay m·Δt on the array irrespective of their spatial location. Consequently, the average value of T provides an approximation for Δtavg, the average time to wait before making a decision whether an nLFP propagated on the array. However, this interval distribution is highly skewed, particularly when one compares the last nLFP with the first nLFP in successive avalanches that are separated by long times. In order to exclude time intervals from successive nLFPs that are barely correlated, a cut-off time τmax can be calculated for which the average crosscorrelation function (ccf) for pair wise electrode comparisons Rccf(τ) had decayed to negligible values. The ccf between electrodes k, l (Rccf^k,l(τ)) can be calculated as
Because the exemplary maximal sampling rate was 1 kHz, the actual Δt^avg to calculate avalanches can be taken as the nearest multiple of Δt=1 ms. In short, after Δtavg was calculated for a particular network and experimental condition, the extracellular signals v(t) can be re-sampled at the new temporal resolution of Δtavg. Time and amplitude of nLFP peaks can be extracted as A^k(ti), where ti=i·Δtavg, iε[1, n′max] and Ttot=n′max·Δtavg. Avalanches can be determined on the downsampled data set at bin width Δtavg.
Avalanche sizes can be calculated in two different ways (see also FIG. 3A).

For `Cl.Oc1cc2c(cc1O)C(c1ccccc1)CNCC2` (racemic) [SKF38393], the “avalanche induction and layer localisation” value [1] was “induced neuronal avalanches primarily in superficial layers”, the “average nLFP peak amplitude” value ([2]; 3 μM SKF38393 + 3 μM NMDA) was 6.62±0.01 mV and the Δtavg ([2]; 3 μM SKF38393 + 3 μM NMDA) was 3.3±0.2. For the same compound, the “total activity at slope α ~−1.5 compared to dopamine” value ([2]; 3 μM SKF38393 + 3 μM NMDA vs 30 μM dopamine, p=0.007) was “significantly reduced level of total activity compared to dopamine”, the “slope αLFP after rescue by added NMDA” value ([2]; 3 μM SKF38393 alone first, then 3 μM NMDA added) was −1.55±0.07 and the “induction of nLFPs or avalanches” value ([2]; 3 μM SKF38393 alone, without NMDA) was “did not induce nLFPs or avalanches”. For the same compound, the “slope α of avalanche size distribution” value ([2]; SKF38393 higher or lower than 3 μM (0.3-300 μM range), + 3 μM NMDA) was under −1.5.
